Each structure is given as a SMILES string. Calls of active or inactive are those of the source.

Assay [1] addresses Cell division cycle 7-related protein kinase (Homo sapiens, UniProt O00311).
Assay [2] concerns the target Epidermal growth factor receptor (Homo sapiens, UniProt P00533).
Assay [3] deals with T1, Receptor-type tyrosine-protein kinase FLT3 (Homo sapiens, UniProt P36888).
T1 sequence (P36888 whole entry): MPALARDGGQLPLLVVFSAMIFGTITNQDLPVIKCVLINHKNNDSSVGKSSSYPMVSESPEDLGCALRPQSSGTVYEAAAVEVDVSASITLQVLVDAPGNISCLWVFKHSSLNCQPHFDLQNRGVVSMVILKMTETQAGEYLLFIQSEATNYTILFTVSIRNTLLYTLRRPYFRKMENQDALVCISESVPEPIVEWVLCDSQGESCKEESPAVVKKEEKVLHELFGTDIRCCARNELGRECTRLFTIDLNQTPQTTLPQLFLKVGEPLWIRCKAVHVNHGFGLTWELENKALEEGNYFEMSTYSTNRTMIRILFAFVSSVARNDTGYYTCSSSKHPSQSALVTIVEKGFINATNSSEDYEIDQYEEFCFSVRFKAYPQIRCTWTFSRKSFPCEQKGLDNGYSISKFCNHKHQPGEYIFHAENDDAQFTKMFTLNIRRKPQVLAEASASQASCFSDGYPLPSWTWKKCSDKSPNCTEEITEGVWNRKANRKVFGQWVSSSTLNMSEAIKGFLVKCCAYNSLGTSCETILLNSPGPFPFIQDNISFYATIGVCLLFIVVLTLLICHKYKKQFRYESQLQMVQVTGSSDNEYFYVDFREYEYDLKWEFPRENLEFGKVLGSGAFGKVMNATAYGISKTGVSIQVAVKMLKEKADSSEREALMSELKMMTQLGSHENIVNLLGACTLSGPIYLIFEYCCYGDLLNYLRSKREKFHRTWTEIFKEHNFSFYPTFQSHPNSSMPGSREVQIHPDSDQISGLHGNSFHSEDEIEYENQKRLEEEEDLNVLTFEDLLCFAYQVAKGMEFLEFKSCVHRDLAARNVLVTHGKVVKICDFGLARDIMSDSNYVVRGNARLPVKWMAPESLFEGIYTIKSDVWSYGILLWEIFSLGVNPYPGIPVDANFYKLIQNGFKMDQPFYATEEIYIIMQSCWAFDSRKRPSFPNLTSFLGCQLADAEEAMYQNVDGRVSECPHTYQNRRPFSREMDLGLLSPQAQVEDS

For assay [4], the target named is Glycogen synthase kinase-3 beta (Homo sapiens, UniProt P49841).
In assay [5] the target is Phosphatidylethanolamine-binding protein 1 (Homo sapiens, UniProt P30086).
Assay [6] has as its target Membrane-associated progesterone receptor component 1 (Homo sapiens, UniProt O00264).
The target in assay [7] is Serine/threonine-protein kinase pim-2 (Homo sapiens, UniProt Q9P1W9).
The target in assay [8] is Focal adhesion kinase 1 (Homo sapiens, UniProt Q05397).
The target of assay [9] is Proto-oncogene tyrosine-protein kinase receptor Ret (Homo sapiens, UniProt P07949).
Assay [10] concerns the target DNA topoisomerase 2-alpha (Homo sapiens, UniProt P11388).
Assay [11] deals with Mitogen-activated protein kinase 14 (Homo sapiens, UniProt Q16539).
Assay [12] deals with High affinity nerve growth factor receptor (Homo sapiens, UniProt P04629).
Assay [13] deals with PAS domain-containing serine/threonine-protein kinase (Homo sapiens, UniProt Q96RG2).
Assay [14] has as its target Serine/threonine-protein kinase N3 (Homo sapiens, UniProt Q6P5Z2).
In assay [15] the target is Dual specificity testis-specific protein kinase 1 (Homo sapiens, UniProt Q15569).
Assay [16] has as its target T2, Thyroid hormone receptor-associated protein 3 (Homo sapiens, UniProt Q9Y2W1).
T2 sequence (Q9Y2W1 whole entry): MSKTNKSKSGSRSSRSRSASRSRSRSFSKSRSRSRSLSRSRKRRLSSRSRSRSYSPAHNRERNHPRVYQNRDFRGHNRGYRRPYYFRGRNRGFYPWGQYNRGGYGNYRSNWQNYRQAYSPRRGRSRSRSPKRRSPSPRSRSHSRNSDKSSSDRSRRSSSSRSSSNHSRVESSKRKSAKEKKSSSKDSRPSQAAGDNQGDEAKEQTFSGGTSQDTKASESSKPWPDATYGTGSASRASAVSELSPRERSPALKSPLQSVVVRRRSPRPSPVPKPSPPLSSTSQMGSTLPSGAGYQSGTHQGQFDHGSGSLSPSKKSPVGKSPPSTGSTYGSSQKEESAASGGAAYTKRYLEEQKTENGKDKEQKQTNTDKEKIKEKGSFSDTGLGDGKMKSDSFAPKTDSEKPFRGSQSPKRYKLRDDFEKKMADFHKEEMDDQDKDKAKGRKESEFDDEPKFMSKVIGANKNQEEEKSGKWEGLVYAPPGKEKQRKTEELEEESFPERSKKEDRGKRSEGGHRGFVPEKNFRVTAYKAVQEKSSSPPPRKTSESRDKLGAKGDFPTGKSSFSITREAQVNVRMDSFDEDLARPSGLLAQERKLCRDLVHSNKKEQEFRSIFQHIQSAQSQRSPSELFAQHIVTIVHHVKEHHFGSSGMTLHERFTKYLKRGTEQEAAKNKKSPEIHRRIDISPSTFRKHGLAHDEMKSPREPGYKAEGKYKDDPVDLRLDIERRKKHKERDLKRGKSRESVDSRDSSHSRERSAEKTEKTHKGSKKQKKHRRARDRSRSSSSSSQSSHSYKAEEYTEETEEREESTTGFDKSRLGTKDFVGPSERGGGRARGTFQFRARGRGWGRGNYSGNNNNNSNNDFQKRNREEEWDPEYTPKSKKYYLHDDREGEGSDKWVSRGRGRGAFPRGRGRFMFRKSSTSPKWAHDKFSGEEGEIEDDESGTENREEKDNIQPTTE

Assay [17] addresses Dual specificity protein kinase CLK3 (Homo sapiens, UniProt P49761). Type of assay: subcellular, K-562, COLO 205, SK-N-BE(2) and MV-4-11, Cell lysate. The following applies: read-out: Kd apparent.
Also: in the data inactive means no Kd found up to 30 µM.

Sequence of Glycogen synthase kinase-3 beta (P49841 whole entry): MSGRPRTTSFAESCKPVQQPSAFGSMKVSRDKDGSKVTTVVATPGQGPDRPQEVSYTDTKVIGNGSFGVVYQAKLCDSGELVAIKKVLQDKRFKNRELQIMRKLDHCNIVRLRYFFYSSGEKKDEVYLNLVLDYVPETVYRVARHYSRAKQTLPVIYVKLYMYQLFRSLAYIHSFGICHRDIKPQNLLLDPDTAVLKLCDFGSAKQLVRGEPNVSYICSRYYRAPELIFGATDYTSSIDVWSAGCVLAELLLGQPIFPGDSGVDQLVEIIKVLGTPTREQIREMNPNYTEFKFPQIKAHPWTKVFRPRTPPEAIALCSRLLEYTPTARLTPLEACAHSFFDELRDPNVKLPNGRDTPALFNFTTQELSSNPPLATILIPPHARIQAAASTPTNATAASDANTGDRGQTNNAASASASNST
Sequence of Focal adhesion kinase 1 (Q05397 whole entry): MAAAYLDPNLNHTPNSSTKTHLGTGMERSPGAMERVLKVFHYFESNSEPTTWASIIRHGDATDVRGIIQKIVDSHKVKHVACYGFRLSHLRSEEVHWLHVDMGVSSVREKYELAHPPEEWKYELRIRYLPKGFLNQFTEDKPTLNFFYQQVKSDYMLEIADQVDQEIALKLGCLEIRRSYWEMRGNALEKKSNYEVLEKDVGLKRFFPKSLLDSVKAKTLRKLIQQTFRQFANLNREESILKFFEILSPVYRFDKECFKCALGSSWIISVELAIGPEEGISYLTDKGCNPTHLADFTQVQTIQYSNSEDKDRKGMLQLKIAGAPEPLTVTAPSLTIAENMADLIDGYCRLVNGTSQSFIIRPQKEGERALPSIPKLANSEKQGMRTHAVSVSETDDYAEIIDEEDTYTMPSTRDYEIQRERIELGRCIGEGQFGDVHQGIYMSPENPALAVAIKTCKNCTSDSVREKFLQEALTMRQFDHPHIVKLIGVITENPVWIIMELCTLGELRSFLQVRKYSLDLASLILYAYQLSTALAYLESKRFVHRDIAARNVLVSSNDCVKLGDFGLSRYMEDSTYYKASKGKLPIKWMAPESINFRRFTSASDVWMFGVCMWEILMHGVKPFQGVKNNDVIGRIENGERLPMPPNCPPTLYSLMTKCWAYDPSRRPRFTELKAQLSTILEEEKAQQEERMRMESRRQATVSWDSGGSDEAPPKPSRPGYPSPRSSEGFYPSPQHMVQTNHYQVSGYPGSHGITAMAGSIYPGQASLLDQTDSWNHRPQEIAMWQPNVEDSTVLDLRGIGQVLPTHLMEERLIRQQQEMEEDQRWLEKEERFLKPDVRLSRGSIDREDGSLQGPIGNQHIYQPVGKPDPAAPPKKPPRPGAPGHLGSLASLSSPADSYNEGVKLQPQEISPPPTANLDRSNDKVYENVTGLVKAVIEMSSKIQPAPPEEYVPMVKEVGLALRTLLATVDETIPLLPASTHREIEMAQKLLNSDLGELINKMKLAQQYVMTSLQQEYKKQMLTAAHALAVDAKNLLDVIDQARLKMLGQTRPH
Sequence of Dual specificity testis-specific protein kinase 1 (Q15569 whole entry): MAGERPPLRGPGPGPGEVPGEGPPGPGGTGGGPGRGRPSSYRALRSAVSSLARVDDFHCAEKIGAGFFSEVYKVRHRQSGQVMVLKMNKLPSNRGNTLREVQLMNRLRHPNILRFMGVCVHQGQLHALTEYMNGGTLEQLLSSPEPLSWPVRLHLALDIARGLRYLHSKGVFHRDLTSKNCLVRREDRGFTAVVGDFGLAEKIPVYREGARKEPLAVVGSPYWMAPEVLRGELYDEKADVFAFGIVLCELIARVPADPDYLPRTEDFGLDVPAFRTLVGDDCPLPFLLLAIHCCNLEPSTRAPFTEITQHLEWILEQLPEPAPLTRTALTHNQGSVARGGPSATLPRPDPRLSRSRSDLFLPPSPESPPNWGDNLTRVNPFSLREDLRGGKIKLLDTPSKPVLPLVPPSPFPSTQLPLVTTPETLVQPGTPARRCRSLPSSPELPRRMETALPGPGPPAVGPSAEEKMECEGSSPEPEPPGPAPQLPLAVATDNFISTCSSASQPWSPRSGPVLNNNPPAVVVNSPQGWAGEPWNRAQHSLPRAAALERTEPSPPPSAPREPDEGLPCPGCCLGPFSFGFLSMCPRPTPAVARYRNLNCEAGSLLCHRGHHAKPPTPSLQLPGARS
Sequence of Serine/threonine-protein kinase N3 (Q6P5Z2 whole entry): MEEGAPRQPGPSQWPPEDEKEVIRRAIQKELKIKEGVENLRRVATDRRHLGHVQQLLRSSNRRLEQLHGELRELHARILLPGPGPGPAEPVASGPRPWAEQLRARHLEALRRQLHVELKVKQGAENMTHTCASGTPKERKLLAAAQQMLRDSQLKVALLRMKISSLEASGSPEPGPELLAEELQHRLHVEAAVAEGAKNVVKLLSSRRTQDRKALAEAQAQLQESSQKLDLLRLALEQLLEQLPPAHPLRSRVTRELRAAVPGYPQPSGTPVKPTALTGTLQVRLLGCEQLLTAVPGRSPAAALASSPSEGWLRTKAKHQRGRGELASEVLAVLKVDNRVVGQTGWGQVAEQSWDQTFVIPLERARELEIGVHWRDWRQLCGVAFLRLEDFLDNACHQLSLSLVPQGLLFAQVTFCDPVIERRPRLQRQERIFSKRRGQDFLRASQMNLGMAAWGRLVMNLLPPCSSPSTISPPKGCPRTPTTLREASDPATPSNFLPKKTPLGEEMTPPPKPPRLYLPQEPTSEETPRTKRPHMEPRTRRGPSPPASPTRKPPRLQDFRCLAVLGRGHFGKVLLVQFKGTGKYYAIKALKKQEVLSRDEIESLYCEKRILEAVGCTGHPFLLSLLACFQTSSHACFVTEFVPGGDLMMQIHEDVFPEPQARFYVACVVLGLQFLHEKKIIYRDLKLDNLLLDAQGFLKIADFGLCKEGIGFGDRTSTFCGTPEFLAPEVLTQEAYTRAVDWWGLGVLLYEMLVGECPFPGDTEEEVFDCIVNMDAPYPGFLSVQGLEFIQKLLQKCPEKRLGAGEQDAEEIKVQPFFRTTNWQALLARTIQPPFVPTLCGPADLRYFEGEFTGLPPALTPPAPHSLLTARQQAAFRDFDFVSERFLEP
Sequence of Phosphatidylethanolamine-binding protein 1 (P30086 whole entry): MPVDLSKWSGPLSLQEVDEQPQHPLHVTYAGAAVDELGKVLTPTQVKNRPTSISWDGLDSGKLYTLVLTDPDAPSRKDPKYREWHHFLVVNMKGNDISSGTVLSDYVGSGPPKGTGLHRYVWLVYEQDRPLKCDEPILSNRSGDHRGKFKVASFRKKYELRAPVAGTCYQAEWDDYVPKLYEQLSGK
Sequence of Proto-oncogene tyrosine-protein kinase receptor Ret (P07949 whole entry): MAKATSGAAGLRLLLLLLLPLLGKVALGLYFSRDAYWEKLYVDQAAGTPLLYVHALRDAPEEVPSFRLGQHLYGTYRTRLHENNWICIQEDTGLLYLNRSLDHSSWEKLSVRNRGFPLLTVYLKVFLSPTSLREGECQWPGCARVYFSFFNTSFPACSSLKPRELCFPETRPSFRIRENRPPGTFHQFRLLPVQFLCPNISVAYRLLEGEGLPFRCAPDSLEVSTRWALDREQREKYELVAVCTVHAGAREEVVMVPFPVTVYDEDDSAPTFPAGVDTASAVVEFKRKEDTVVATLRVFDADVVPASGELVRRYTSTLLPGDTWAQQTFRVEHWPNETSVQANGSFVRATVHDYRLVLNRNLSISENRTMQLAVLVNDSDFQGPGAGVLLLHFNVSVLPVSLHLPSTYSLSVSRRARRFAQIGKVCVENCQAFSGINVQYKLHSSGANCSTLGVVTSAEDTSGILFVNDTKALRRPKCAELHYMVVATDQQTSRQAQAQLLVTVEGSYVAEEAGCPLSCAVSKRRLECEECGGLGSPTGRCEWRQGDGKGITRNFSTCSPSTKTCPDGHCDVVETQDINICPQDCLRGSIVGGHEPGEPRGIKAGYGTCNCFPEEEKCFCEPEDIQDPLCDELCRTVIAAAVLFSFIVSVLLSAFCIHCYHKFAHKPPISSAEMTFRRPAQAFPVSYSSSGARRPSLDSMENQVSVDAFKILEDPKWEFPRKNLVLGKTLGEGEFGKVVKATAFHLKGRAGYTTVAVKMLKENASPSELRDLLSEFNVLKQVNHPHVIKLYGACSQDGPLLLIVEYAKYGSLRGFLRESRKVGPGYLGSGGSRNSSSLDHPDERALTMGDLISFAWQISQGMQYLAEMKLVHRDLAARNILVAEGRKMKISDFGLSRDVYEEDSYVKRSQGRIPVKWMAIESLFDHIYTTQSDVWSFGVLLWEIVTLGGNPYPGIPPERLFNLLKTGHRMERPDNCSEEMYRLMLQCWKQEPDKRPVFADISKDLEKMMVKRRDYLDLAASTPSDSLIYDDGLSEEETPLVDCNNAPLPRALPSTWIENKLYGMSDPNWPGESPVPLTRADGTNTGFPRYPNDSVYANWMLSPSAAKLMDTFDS
Sequence of Serine/threonine-protein kinase pim-2 (Q9P1W9 whole entry): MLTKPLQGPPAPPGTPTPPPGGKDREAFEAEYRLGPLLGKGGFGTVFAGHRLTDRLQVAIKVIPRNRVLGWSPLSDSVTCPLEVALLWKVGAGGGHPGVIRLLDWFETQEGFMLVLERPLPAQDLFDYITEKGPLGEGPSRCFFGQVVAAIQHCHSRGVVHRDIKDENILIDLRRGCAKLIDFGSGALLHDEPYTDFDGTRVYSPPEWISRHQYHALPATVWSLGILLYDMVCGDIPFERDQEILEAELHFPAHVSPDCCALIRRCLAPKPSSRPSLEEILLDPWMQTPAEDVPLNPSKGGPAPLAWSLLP
Sequence of Membrane-associated progesterone receptor component 1 (O00264 whole entry): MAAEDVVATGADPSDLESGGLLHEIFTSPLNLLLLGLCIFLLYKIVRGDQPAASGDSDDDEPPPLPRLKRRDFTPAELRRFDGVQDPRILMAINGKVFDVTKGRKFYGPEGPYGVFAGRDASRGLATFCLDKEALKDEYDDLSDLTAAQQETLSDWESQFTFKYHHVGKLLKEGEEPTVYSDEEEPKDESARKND

On to `O=c1[nH]c([C@@H]2CCCN2)nc2c1oc1ccc(Cl)cc12`, for which the Kd is > 30 µM (inactive) in assay [1]; > 30 µM (inactive) in assay [2]; > 30 µM (inactive) in [3]; 8.79 µM in assay [4]; > 30 µM (inactive) in [5]; > 30 µM (inactive) in assay [6]. Moreover, the Kd in assay [7], in assay [8], in assay [9] and in [10] was > 30 µM (inactive) throughout.
`COc1cc2ncnc(Nc3ccc(O)cc3)c2cc1OC` [WHI-P131]: the Kd was 1.16 µM (active) in assay [2]; 1.31 µM (active) in assay [3]; > 30 µM (inactive) in assay [4]; > 30 µM (inactive) in assay [11]; > 30 µM (inactive) in [12]; > 30 µM (inactive) in assay [13]. The Kd in assay [5] was > 30 µM (inactive); in assay [6] it was > 30 µM (inactive); in assay [7] it was > 30 µM (inactive); in assay [14], > 30 µM (inactive); in assay [8] it was > 30 µM (inactive); in assay [9], 21.9 µM (active). For the same molecule, the Kd in [15], in assay [16] and in assay [10] was > 30 µM (inactive) in each case.
In the case of `CNC(=O)c1ccc(Nc2ncc(C(F)(F)F)c(NCc3nccnc3N(C)S(C)(=O)=O)n2)cc1` [DEFACTINIB], the Kd is > 30 µM (inactive) in assay [1]; > 30 µM (inactive) in assay [2]; 0.34 µM (active) in assay [3]; 1.32 µM (active) in assay [4]; > 30 µM (inactive) in [11]; > 30 µM (inactive) in assay [6]. Further, the Kd in assay [7] was > 30 µM (inactive); in [14] it was > 30 µM (inactive); in assay [9], 27.5 µM (active); in assay [15], > 30 µM (inactive); in assay [16], > 30 µM (inactive); in assay [10], > 30 µM (inactive).
With `CN(c1ncccc1CNc1nc(Nc2ccc3c(c2)CC(=O)N3)ncc1C(F)(F)F)S(C)(=O)=O` [PF-00562271], the Kd in assay [17], in assay [13], in assay [5], in assay [6], in assay [14] and in [15] was > 30 µM (inactive) in each case.
On to `N#CCNC(=O)c1ccc(-c2ccnc(Nc3ccc(N4CCOCC4)cc3)n2)cc1` [MOMELOTINIB], for which the Kd in [11], in assay [12], in assay [13], in [5], in assay [6] and in assay [7] was > 30 µM (inactive) throughout. Besides, the Kd in assay [10] was > 30 µM (inactive).
Turning to `Cc1cc(C(=O)Nc2cc(Oc3ccc4nc(NC(=O)C5CC5)cn4n3)ccc2C)n(C)n1` [TAK-593], the Kd in [2], in [3], in assay [4], in [11], in assay [12] and in assay [7] was > 30 µM (inactive) throughout. In addition, the Kd in [8], in assay [15] and in assay [10] was > 30 µM (inactive) each time.
Regarding `Cc1c(NC(=O)OC[C@@H]2COCCN2)cn2ncnc(Nc3ccc4c(cnn4Cc4cccc(F)c4)c3)c12` [AC-480], the Kd in [2] is 0.003 µM (active); in assay [3] it was > 30 µM (inactive); in assay [4], > 30 µM (inactive); in assay [11], > 30 µM (inactive); in assay [12] it was > 30 µM (inactive); in [13], > 30 µM (inactive). Also, the Kd in assay [5], in assay [7], in assay [8], in [9], in assay [15] and in assay [16] was > 30 µM (inactive) in each case.
Regarding `CNC(=O)c1cc(COc2nnc(Nc3ccc(Cl)cc3)c3ccoc23)ccn1` [TELATINIB], the Kd in assay [2], in assay [3], in assay [4], in assay [11], in assay [12] and in assay [13] was > 30 µM (inactive) each time. For the same molecule, the Kd in [5], in assay [6], in [7], in [14], in assay [8] and in assay [9] was > 30 µM (inactive) in each case. In addition, the Kd in assay [15] and in [10] was > 30 µM (inactive) in each case.
Take `CC(C)CC(=O)Nc1[nH]nc2c1CN(C(=O)C1CCN(C)CC1)C2(C)C` [PHA-793887]: the Kd in assay [1] was > 30 µM (inactive); in [3], > 30 µM (inactive); in [4], 0.012 µM (active); in [11], > 30 µM (inactive); in assay [12], > 30 µM (inactive); in assay [13], > 30 µM (inactive). Also, the Kd in assay [5], in assay [6], in [7] and in assay [10] was > 30 µM (inactive) each time.
With `COc1ccc(-c2ccc3ncc4c(c3c2)n(-c2ccc(N3CCNCC3)c(C(F)(F)F)c2)c(=O)n4C)cn1` [BGT-226 FREE BASE], the Kd in assay [1], in assay [2], in assay [3], in [4], in assay [11] and in assay [12] was > 30 µM (inactive) in each case. Besides, the Kd in assay [13], in assay [5], in assay [6], in [7], in assay [8] and in assay [9] was > 30 µM (inactive) throughout. The Kd in [15] and in assay [10] was > 30 µM (inactive) in each case.
